# Results: ChEMBL document CHEMBL1122454, “Piperazinylimidazo[1,2-a]pyrazines with selective affinity for in vitro alpha-adrenergic receptor subtypes” (J Med Chem, 1983)
# Experiments:
# [1] = Displacement of [3H]prazosin from alpha-1-adrenergic receptor of calf neocortical membrane; design: species or system Bos taurus
# Bos taurus = species on record: Bos taurus; experiment: Relative affinity for alpha-1 and alpha-2 adrenergic receptors; design: reference not given here
# [2] = Displacement of [3H]clonidine from alpha-2-adrenergic receptor of calf neocortical membrane; design: species or system Bos taurus
Kd [1],Compound,Kd ([1]; read-out: Kd),Ratio (Bos taurus),Kd [2]
,c1cn2c(N3CCNCC3)cncc2n1,51000 nM,1.8,28100 nM
,c1ccc2c(c1)N=C(N1CCNCC1)C1=NCCN12,1300 nM,0.72,1800 nM
43 nM,CN1CCN2c3ccccc3Cc3ccccc3C2C1 (configuration not stated) [MIANSERIN],,2.3,19 nM
,c1cn2ccnc2c(N2CCNCC2)n1,3100 nM,160,19 nM
,Clc1cncc(N2CCNCC2)n1 [MK-212],2400 nM,16,150 nM
,CN1CCN(c2nc(Cl)cn3ccnc23)CC1,380 nM,2.6,144 nM
,Clc1cn2c(Cl)cnc2c(N2CCNCC2)n1,410 nM,0.4,1000 nM
,Clc1cnc2c(N3CCNCC3)nccn12,2780 nM,9.6,290 nM
,Cc1cnc2c(N3CCNCC3)nc(Cl)cn12,160 nM,0.64,250 nM
,ClC1=CN2CCN=C2C(N2CCNCC2)=N1,3000 nM,1.9,1600 nM
,Clc1cn2ccnc2c(N2CCNCC2)n1,250 nM,2.8,88 nM
,c1ccc(-c2cn3ccnc3c(N3CCNCC3)n2)cc1,360 nM,0.2,1800 nM
,Clc1cn2c3c(nc2c(N2CCNCC2)n1)CCCC3,200 nM,0.13,1500 nM
,Clc1cnc2cnc(N3CCNCC3)cn12,6800 nM,0.36,18900 nM
